Test results taken from ChEMBL document CHEMBL5247607, “Design, synthesis and biological evaluation of a new series of arylidene indanones as small molecules for targeted therapy of non-small cell lung carcinoma and prostate cancer” (Eur J Med Chem, 2022).
Calls of active or inactive are those of the source. The calls are words filed in the database; no cut-off is given here.

Tests used:
A549 [1] = assay: Inhibition of DNA synthesis in human A549 cells at IC50 incubated for 24 hrs by BrdU incorporation assay relative to control; assay type: functional
PANC-1 [2] = assay: Induction of mitochondrial membrane potential loss in human PANC-1 cells assessed as polarized cells at IC50 incubated for 24 hrs by JC-1 staining based flow cytometry assay (reference value: 92%); assay type: functional
A549 [3] = assay: Cytotoxicity against human A549 cells assessed as inhibition of cell growth incubated for 24 hrs by MTT assay; assay type: functional, cell-based; conditions: A549, 24 h
A549 [4] = assay: Induction of apoptosis in human A549 cells assessed as total cell viability at IC50 incubated for 24 hrs by annexin V-FITC/PI staining based flow cytometry analysis (reference value: 85.6 %); assay type: functional
A549 [5] = assay: Induction of mitochondrial membrane potential loss in human A549 cells assessed as depolarized cells at IC50 incubated for 24 hrs by JC-1 staining based flow cytometry assay (reference value: 6.9%); assay type: functional
PANC-1 [6] = assay: Inhibition of DNA synthesis in human PANC-1 cells at 10.04 uM incubated for 24 hrs by BrdU incorporation assay relative to control; assay type: functional
A549 [7] = assay: Induction of apoptosis in human A549 cells assessed as early apoptotic cells at IC50 incubated for 24 hrs by annexin V-FITC/PI staining based flow cytometry analysis (reference value: 5.6%); assay type: functional
PANC-1 [8] = assay: Induction of morphological changes in human PANC-1 cells assessed as cell shrinkage at 10.04 uM incubated for 24 hrs by acridine orange/ethidium bromide staining based fluorescence microscopic analysis; assay type: functional
A549 [9] = assay: Inhibition of DNA synthesis in human A549 cells at IC50/2 incubated for 24 hrs by BrdU incorporation assay relative to control; assay type: functional
PANC-1 [10] = assay: Induction of apoptosis in human PANC-1 cells assessed as activation of caspase-3 by measuring caspase-3 positive cells at IC50 incubated for 24 hrs by flow cytometry analysis (reference value: 1.8%); assay type: functional
PANC-1 [11] = assay: Induction of mitochondrial membrane potential loss in human PANC-1 cells assessed as depolarized cells at IC50 incubated for 24 hrs by JC-1 staining based flow cytometry assay (reference value: 5%); assay type: functional
PANC-1 [12] = assay: Induction of apoptosis in human PANC-1 cells assessed as late apoptotic cells at IC50 incubated for 24 hrs by annexin V-FITC/PI staining based flow cytometry analysis (reference value: 0.2%); assay type: functional
A549 [13] = assay: Inhibition of DNA synthesis in human A549 cells at IC50/4 incubated for 24 hrs by BrdU incorporation assay relative to control; assay type: functional
PANC-1 [14] = assay: Cytotoxicity against human PANC-1 cells assessed as inhibition of cell growth incubated for 24 hrs by MTT assay; assay type: functional, cell-based; conditions: PANC-1, 24 h
[15] = biological target: Procathepsin L (Homo sapiens) (UniProt P07711); assay: Inhibition of cathepsin L (unknown origin) at 100 uM
[16] = Selectivity index, ratio of IC50 for cytotoxicity against human hTERT-HPNE cells to IC50 for cytotoxicity against human PANC-1 cells; assay type: toxicity, cell-based; conditions: hTERT-HPNE cells versus PANC-1 cells, read-out: Ratio IC50
A549 [17] = assay: Induction of morphological changes in human A549 cells assessed as chromatin condensation at 15.33 uM incubated for 24 hrs by acridine orange/ethidium bromide staining based fluorescence microscopic analysis; assay type: functional, cell-based
[18] = biological target: Cathepsin D (Homo sapiens) (UniProt P07339); assay: Inhibition of cathepsin D (unknown origin) at 100 uM
PANC-1 [19] = assay: Induction of apoptosis in human PANC-1 cells assessed as total cell viability at IC50 incubated for 24 hrs by annexin V-FITC/PI staining based flow cytometry analysis (reference value: 84.4%); assay type: functional
A549 [20] = assay: Induction of morphological changes in human A549 cells assessed as formation of apoptotic bodies at 15.33 uM incubated for 24 hrs by acridine orange/ethidium bromide staining based fluorescence microscopic analysis; assay type: functional, cell-based
A549 [21] = assay: Induction of apoptosis in human A549 cells assessed as activation of caspase-3 by measuring caspase-3 negative cells at IC50 incubated for 24 hrs by flow cytometry analysis (reference value: 91.1%); assay type: functional
PANC-1 [22] = assay: Induction of apoptosis in human PANC-1 cells assessed as activation of caspase-3 by measuring caspase-3 negative cells at IC50 incubated for 24 hrs by flow cytometry analysis (reference value: 98.5 %); assay type: functional
A549 [23] = assay: Induction of apoptosis in human A549 cells assessed as activation of caspase-3 by measuring caspase-3 positive cells at IC50 incubated for 24 hrs by flow cytometry analysis (reference value: 8.4%); assay type: functional
A549 [24] = assay: Induction of apoptosis in human A549 cells assessed as late apoptotic cells at IC50 incubated for 24 hrs by annexin V-FITC/PI staining based flow cytometry analysis (reference value: 6.5 %); assay type: functional
A549 [25] = assay: Induction of mitochondrial membrane potential loss in human A549 cells assessed as polarized cells at IC50 incubated for 24 hrs by JC-1 staining based flow cytometry assay (reference value: 90.6%); assay type: functional
PANC-1 [26] = assay: Induction of morphological changes in human PANC-1 cells assessed as chromatin condensation at 10.04 uM incubated for 24 hrs by acridine orange/ethidium bromide staining based fluorescence microscopic analysis; assay type: functional, cell-based
PANC-1 [27] = assay: Induction of apoptosis in human PANC-1 cells assessed as early apoptotic cells at IC50 incubated for 24 hrs by annexin V-FITC/PI staining based flow cytometry analysis (reference value: 0%); assay type: functional
A549 [28] = assay: Induction of morphological changes in human A549 cells assessed as cell shrinkage at 15.33 uM incubated for 24 hrs by acridine orange/ethidium bromide staining based fluorescence microscopic analysis; assay type: functional
[29] = Cytotoxicity against human hTERT-HPNE cells assessed as inhibition of cell growth incubated for 24 hrs by MTT assay; assay type: toxicity, cell-based
[30] = Selectivity index, ratio of IC50 for cytotoxicity against human CCD 19Lu cells to IC50 for cytotoxicity against human A549 cells; assay type: toxicity, cell-based; conditions: CCD 19Lu cells versus A549 cells, read-out: Ratio IC50
PANC-1 [31] = assay: Induction of morphological changes in human PANC-1 cells assessed as formation of apoptotic bodies at 10.04 uM incubated for 24 hrs by acridine orange/ethidium bromide staining based fluorescence microscopic analysis; assay type: functional, cell-based
[32] = Cytotoxicity against human CCD 19Lu cells assessed as inhibition of cell growth incubated for 24 hrs by MTT assay; assay type: toxicity, cell-based
PANC-1 [33] = assay: Potency index, ratio of cisplatin IC50 for test compound IC50 for cytotoxicity against human PANC-1 cells assessed as inhibition of cell growth incubated for 24 hrs by MTT assay; assay type: functional
PANC-1 [34] = assay: Inhibition of DNA synthesis in human PANC-1 cells at IC50/4 to IC50 concentration incubated for 24 hrs by BrdU incorporation assay; assay type: functional, cell-based
PANC-1 [35] = assay: Induction of morphological changes in human PANC-1 cells assessed as formation of apoptotic bodies at 13.58 uM incubated for 24 hrs by acridine orange/ethidium bromide staining based fluorescence microscopic analysis; assay type: functional, cell-based
PANC-1 [36] = assay: Induction of morphological changes in human PANC-1 cells assessed as chromatin condensation at 13.58 uM incubated for 24 hrs by acridine orange/ethidium bromide staining based fluorescence microscopic analysis; assay type: functional, cell-based
PANC-1 [37] = assay: Induction of morphological changes in human PANC-1 cells assessed as cell shrinkage at 13.58 uM incubated for 24 hrs by acridine orange/ethidium bromide staining based fluorescence microscopic analysis; assay type: functional
[38] = biological target: Cathepsin D (Homo sapiens) (UniProt P07339); assay: Inhibition of cathepsin D (unknown origin) at 100 uM relative to control
A549 [39] = assay: Induction of morphological changes in human A549 cells assessed as cell shrinkage at 5.96 uM incubated for 24 hrs by acridine orange/ethidium bromide staining based fluorescence microscopic analysis; assay type: functional
PANC-1 [40] = assay: Induction of morphological changes in human PANC-1 cells assessed as chromatin condensation at 5.96 uM incubated for 24 hrs by acridine orange/ethidium bromide staining based fluorescence microscopic analysis; assay type: functional, cell-based
A549 [41] = assay: Inhibition of DNA synthesis in human A549 cells at 5.96 uM incubated for 24 hrs by BrdU incorporation assay relative to control; assay type: functional
A549 [42] = assay: Inhibition of DNA synthesis in human A549 cells at 2.98 uM incubated for 24 hrs by BrdU incorporation assay relative to control; assay type: functional
A549 [43] = assay: Induction of morphological changes in human A549 cells assessed as chromatin condensation at 5.96 uM incubated for 24 hrs by acridine orange/ethidium bromide staining based fluorescence microscopic analysis; assay type: functional, cell-based
PANC-1 [44] = assay: Inhibition of DNA synthesis in human PANC-1 cells at 5.96 uM incubated for 24 hrs by BrdU incorporation assay relative to control; assay type: functional
A549 [45] = assay: Induction of morphological changes in human A549 cells assessed as formation of apoptotic bodies at 5.96 uM incubated for 24 hrs by acridine orange/ethidium bromide staining based fluorescence microscopic analysis; assay type: functional, cell-based
A549 [46] = assay: Inhibition of DNA synthesis in human A549 cells at 1.49 uM incubated for 24 hrs by BrdU incorporation assay relative to control; assay type: functional
A549 [47] = assay: Induction of apoptosis in human A549 cells assessed as increase in intracellular calcium level at 5.96 uM by Fluo-4-AM staining based flow cytometry analysis; assay type: functional, cell-based
PANC-1 [48] = assay: Induction of morphological changes in human PANC-1 cells assessed as formation of apoptotic bodies at 5.96 uM incubated for 24 hrs by acridine orange/ethidium bromide staining based fluorescence microscopic analysis; assay type: functional, cell-based
PANC-1 [49] = assay: Induction of morphological changes in human PANC-1 cells assessed as cell shrinkage at 5.96 uM incubated for 24 hrs by acridine orange/ethidium bromide staining based fluorescence microscopic analysis; assay type: functional

Sequence of Procathepsin L (Homo sapiens) (P07711 114-333 limits assumed): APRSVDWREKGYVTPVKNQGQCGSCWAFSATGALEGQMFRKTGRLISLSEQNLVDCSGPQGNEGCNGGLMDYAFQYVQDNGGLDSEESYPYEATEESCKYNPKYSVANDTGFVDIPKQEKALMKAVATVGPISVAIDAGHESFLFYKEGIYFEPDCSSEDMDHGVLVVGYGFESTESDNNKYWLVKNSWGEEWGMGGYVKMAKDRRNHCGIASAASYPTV
Sequence of Cathepsin D (Homo sapiens) (P07339 65-162 limits assumed): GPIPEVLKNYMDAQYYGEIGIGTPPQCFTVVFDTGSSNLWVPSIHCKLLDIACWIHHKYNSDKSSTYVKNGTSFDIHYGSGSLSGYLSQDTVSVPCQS
Sequence of Cathepsin D (Homo sapiens) (P07339 169-412 limits assumed): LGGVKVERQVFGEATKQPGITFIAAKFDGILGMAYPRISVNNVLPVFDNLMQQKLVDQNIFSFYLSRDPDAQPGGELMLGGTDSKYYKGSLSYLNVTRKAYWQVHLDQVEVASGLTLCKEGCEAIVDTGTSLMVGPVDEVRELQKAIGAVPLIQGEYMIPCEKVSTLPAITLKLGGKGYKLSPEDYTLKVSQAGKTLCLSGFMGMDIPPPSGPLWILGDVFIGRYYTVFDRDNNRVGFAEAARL

Structure (SMILES) | Activity (PANC-1 [2]) | IC50 (A549 [3]) | Activity (A549 [4]) | Activity (A549 [5]) | Activity (A549 [7]) | Activity (PANC-1 [10]) | Activity (PANC-1 [11]) | Activity (PANC-1 [12]) | IC50 (PANC-1 [14]) | inhibition [15] | selectivity ratio [16] | inhibition [18] | Activity (PANC-1 [19]) | Activity (A549 [21]) | Activity (PANC-1 [22]) | Activity (A549 [23]) | Activity (PANC-1 [27]) | IC50 at 24 h [29] | selectivity ratio [30] | IC50 at 24 h [32] | further results
O=C1/C(=C/c2ccc(OCCN3CCOCC3)cc2)Cc2cc3c(cc21)OCO3 | 37.8% | 15.3 µM | 82.4% | 35% | 10.4% | 7.3% | 61.2% | 0.5% | 10 µM | inactive | > 127 | inactive | 9.5% | 93.2% | 93.6% | 6.9% | 0.1% | > 1270 µM | 10.4 | 160 µM | inhibition (INH) (A549 [1]): 19.99%; inhibition at 10.04 µM (PANC-1 [6]): 18.4%; Activity (PANC-1 [8]): Active; inhibition (INH) (A549 [9]): 9.78%; inhibition (INH) (A549 [13]): 4.83%; Activity (A549 [17]): Active; Activity (A549 [20]): Active; Activity (A549 [24]): 5.6%; Activity (A549 [25]): 62.8%; Activity (PANC-1 [26]): Active; Activity (A549 [28]): Active; Activity (PANC-1 [31]): Active
O=C1/C(=C/c2ccc(-n3cncn3)cc2)Cc2cc3c(cc21)OCO3 | 29.5% | 64.9 µM |  |  |  | 9.1% | 58.6% | 0.4% | 13.6 µM | inactive | > 111 | inactive | 94% |  | 93.5% |  | 0.1% | > 1510 µM | > 23.3 | > 1510 µM | Ratio IC50 (PANC-1 [33]): 3; inhibition (PANC-1 [34]): inactive; Activity (PANC-1 [35]): Active; Activity (PANC-1 [36]): Active; Activity (PANC-1 [37]): Active
CN1CCN(c2ccc(/C=C3\Cc4cc5c(cc4C3=O)OCO5)cc2)CC1 |  | 57.9 µM |  |  |  |  |  |  | 156 µM | inactive | > 8.82 |  |  |  |  |  |  | > 1380 µM | > 23.8 | > 1380 µM | inhibition [38]: 26%
CCN(CC)c1ccc(/C=C2\Cc3cc4c(cc3C2=O)OCO4)cc1 | 29.7% | < 11.6 µM | 38.8% | 66.8% | 26.7% | 3.1% | 68.4% | 1.5% | < 11.6 µM | inactive | > 128 |  | 90.9% | 96.1% | 97.6% | 3.9% | 3.5% | > 1490 µM | > 128 | > 1490 µM | Activity (A549 [39]): Active; inhibition [38]: 30.4%; Activity (PANC-1 [40]): Active; inhibition at 5.96 µM (A549 [41]): 39.6%; inhibition at 2.98 µM (A549 [42]): 24.2%; Activity (A549 [43]): Active; inhibition at 5.96 µM (PANC-1 [44]): 23.6%; Activity (A549 [45]): Active; inhibition at 1.49 µM (A549 [46]): 22.1%; Activity (A549 [47]): Active; Activity (A549 [24]): 27%; Activity (A549 [25]): 65.1%; Activity (PANC-1 [48]): Active; Activity (PANC-1 [49]): Active
